Among the data in patent EP0330444A2, “Novel thiorhodamines and a novel method of preparation” (EASTMAN KODAK COMPANY (a New Jersey corporation), priority 1988, dated 1989) are IC50 values, retold here.

The subject of experiment [1] is A549 Human Lung Carcinoma. Description: In vitro IC50, adhering monolayer culture, neutral red staining, inhibition of cell growth. It is filed as cell-based. The note with it: 3 hours drug exposure under red light, then about 7 days growth (four cell-doubling times), neutral red absorbence at 540 nm, read-out: IC₅₀ A549 Human Lung Carcinoma. The text has this: (§1) The following is the procedure carried out in ascertaining the IC₅₀ concentrations of the thiorhodamines of this invention. (IC₅₀ is the in vitro molar concentration that inhibits 50% of tumor growth. The smaller the concentration, the higher the toxicity.):
(§2) For the IC₅₀ values for the human colon carcinoma and the human lung carcinoma lines, an adhering monolayer culture was used. Two days prior to plating, a number of cells obtained from the American Type Tissue Culture Collection was selected to grow as a stock, the number being that which would ensure the cells had not reached their plateau at the time of the in vitro test. On day 1 of the assay, asynchronous exponentially growing cells from this stock were suspended in a conventional complete medium comprising RPMI 1640 medium supplemented with 5% (v/v) fetal calf serum and 5% (v/v) NU serum obtained from Collaborative Research, and 20mM HEPES buffer, i.e., 4-(2-hydroxyethyl)-1-piperazineethanesulfonic acid. This was plated into a conventional 96-well tissue culture plate using a Cetus/Perkin Elmer automated pipetting device equipped with a dual supply manifold. The cells were then incubated for 48 hours at 37°C in a humidified atmosphere containing 5% CO₂. The cells were then incubated under red light for 3 hours in the presence of varying amounts of the compound of interest at 37°C in a humidified incubator containing 5% CO₂. Compounds were tested over a 6-log range of concentrations. After 3 hours the drug treated cells were then rinsed one time with complete medium as set forth above, and incubated in the complete medium the length of time appropriate to achieve four cell-doubling times (roughly 7 days for these cell lines). The medium was removed and the cells stained for 1-2 hours at 37°C with 0.1% (w/v) neutral red dye obtained from Eastman Kodak Co., dissolved in phosphate buffered saline (PBS) (without calcium or magnesium cations) at a pH of 6.85. The cells were rinsed twice with the same PBS and dried. Excess neutral red dye was eluted from each well with 50% (v/v) ethanol in 1% (v/v) glacial acetic acid. The absorbence of each well was quantitated using a Perkin-Elmer absorbence densitometer set at 540 nm. The % of inhibition of cell growth for a given concentration of compound was calculated using the equation: [formula] where At = absorbence of the cells treated with the candidate drug, Au = absorbence of the control treated with solvent only, and Ab = absorbence of the media and well only (background). […] The plotted data was then fitted to the curve for the function: F(x) = 100 - [100(X/A)^B/(1+(X/A)^B)] where x = the concentration of the test compound, A = the IC₅₀ value (50% inhibition on the plot) and B=the exponent of the fitted function. […]

In experiment [2] the test system is CX-1 Human Colon Carcinoma. The description is as above. The note with it: 3 hours drug exposure under red light, then about 7 days growth (four cell-doubling times), neutral red absorbence at 540 nm, read-out: IC₅₀ CX-1 Human Colon Carcinoma. It is filed as cell-based.
Source text: as §1, §2

Structures are written as SMILES.

On to `COC(=O)c1ccccc1-c1c2ccc(N(C)C)cc2[s+]c2cc(N(C)C)ccc12` [Prep. 4, 3,6-bis(dimethylamino)-9-(2-methoxycarbonylphenyl)thioxanthylium chloride], for which the IC50 in experiment [1] and in experiment [2] was 810 nM throughout.
In the case of `COC(=O)c1ccccc1-c1c2ccc(=N)cc-2oc2cc(N)ccc12` [Rhodamine 123], the IC50 in experiment [1] and in experiment [2] was > 12500 nM each time.
